In one test the test system is A549 cells. As to the kind of experiment: In vitro cytotoxicity, MTT assay, A549. Format: cell-based, human. The note with it: A549 (non-small cell lung cancer), 48 h continuous drug exposure. On the procedure:
(§1) All cell lines used in this study were purchased from the American Type Culture Collection (ATCC, United States). A549, MCF-7, and HeLa were grown in Dulbecco's modified Eagle's medium (containing 10% FBS in a humidified atmosphere of 5% CO2 at 37° C.). HCT116 cells were cultured in Eagle's minimal essential medium (MEM) containing non-essential amino acids, 1 mM sodium pyruvate, […] bovine insulin, and 10% FBS. Cells were trypsinized when sub-confluent from T25 flasks/60 mm dishes and seeded in 96-well plates. The synthesized test compounds were evaluated for their in vitro antiproliferative in four different human cancer cell lines. A protocol of 48 h continuous drug exposure was used, and a MTT cell proliferation assay was used to estimate cell viability or growth. The cell lines were grown in their respective media containing 10% fetal bovine serum and were seeded into 96-well microtiter plates in 200 μL, aliquots at plating densities depending on the doubling time of individual cell lines. The microtiter plates were incubated at 37° C., 5% CO2, 95% air, and 100% relative humidity for 24 h prior to addition of experimental drugs. Aliquots of 2 μL, of the test compounds were added to the wells already containing 198 μL, of cells, resulting in the required final drug concentrations. For each compound, four concentrations (1, 10, 100, and 1000 μM) were evaluated, and each was done in triplicate wells. Plates were incubated further for 48 h, and the assay was terminated by the addition of 10 μL, of 5% MTT and incubated for 60 min at 37° C. Later, the plates were air-dried. Bound stain was subsequently eluted with 100 μL, of DMSO, and the absorbance was read on an multimode plate reader (Tecan M200) at a wavelength of 560 nm. Percent growth was calculated on a plate by plate basis for test wells relative to control wells. The above determinations were repeated thrice. The growth inhibitory effects of the compounds were analyzed by generating dose response curves as a plot of the percentage surviving cells versus compound concentration. The sensitivity of the cancer cells to the test compound was expressed in terms of IC50, a value defined as the concentration of compound that produced 50% reduction as compared to the control absorbance. (A. S. Kumar, M. A. Reddy, N. Jain, C. Kishor, T. R. Murthy, D. Ramesh, B. Supriya, A. Addlagatta, S. V. Kalivendi, B. Sreedhar. Eur. J. Med. Chem. 60 (2013) 305-24).
Background: Tetrazolium assays rely on reduction of a dye to a coloured formazan, in cell work by metabolically active cells.

Another test deals with HeLa cells. The experiment in a line: In vitro cytotoxicity, MTT assay, HeLa. The note with it: HeLa (cervical carcinoma), 48 h continuous drug exposure. Type of test: cell-based, human. On the procedure: as §1
The test system of another test is MCF-7 cells. The experiment in a line: In vitro cytotoxicity, MTT assay, MCF-7. Format: cell-based, human. The note with it: 48 h continuous drug exposure. The method, then: as §1
In another test the test system is HCT116 cells. The experiment in a line: In vitro cytotoxicity, MTT assay, HCT116. Type of test: cell-based, human. The note with it: 48 h continuous drug exposure. The method, then:
as §1

In test [1] the test system is A549, HeLa, MCF-7 and HCT116 cells. The experiment in a line: In vitro cytotoxicity, MTT assay, summary over all four cancer cell lines. Type of test: cell-based. The settings on record: Homo sapiens, range over the group of compounds and the four cell lines, read-out: IC50 value range towards all the cancer cell lines. On the procedure: as §1
Setting [2] is: Homo sapiens, MCF7, 48 h, MCF-7 (breast cancer).
Where [3] appears, read: Homo sapiens, HCT-116, HCT116 (colon carcinoma).

Broadly, the IC50 is the concentration at which inhibition is half-maximal. Consider `COc1ccc(/C=C\c2cc(OC)c(OC)c(OC)c2)cc1N/C=C\C(=O)c1ccc(OC(F)(F)F)cc1` [Compound 10o, (Z)-3-((2-methoxy-5-((Z)-3,4,5-trimethoxystyryl)phenyl)amino)-1-(4-(trifluoromethoxy)phenyl)prop-2-en-1-one], for which the half-maximal inhibitory concentration (IC50) in the test with A549 cells (Homo sapiens) is 2.69 µM; in the test on HeLa cells (Homo sapiens), 0.26 µM; in the test with MCF-7 cells (setting [2]), 1.32 µM; in the test with HCT116 cells (setting [3]), 2.95 µM; in test [1], 110 to 4680 nM.
`COc1cc(/C=C\c2cc(OC)c(OC)c(OC)c2)cc(N/C=C\C(=O)c2cc(OC)c(OC)c(OC)c2)c1OC` [Compound 11x, (Z)-3-((2,3-dimethoxy-5-((Z)-3,4,5-trimethoxystyryl)phenyl)amino)-1-(3,4,5-trimethoxyphenyl)prop-2-en-1-one]: the IC50 in the test on A549 cells (Homo sapiens) is 3.33 µM; in the test with HeLa cells (Homo sapiens), 3.72 µM; with MCF-7 cells (setting [2]), 7.08 µM; in the test on HCT116 cells (setting [3]) it was 0.28 µM; in test [1] it was 120 to 5750 nM.
Turning to `COc1ccc(C(=O)/C=C\Nc2cc(/C=C\c3cc(OC)c(OC)c(OC)c3)cc(OC)c2OC)cc1O` [Compound 11q, (Z)-3-((2,3-dimethoxy-5-((Z)-3,4,5-trimethoxystyryl)phenyl)amino)-1-(3-hydroxy-4-methoxyphenyl)prop-2-en-1-one], the IC50 is 0.32 µM with A549 cells (Homo sapiens); 1.91 µM in the test with HeLa cells (Homo sapiens); 2.09 µM with MCF-7 cells (setting [2]); 3.24 µM in the test on HCT116 cells (setting [3]); 120 to 5750 nM in test [1].
As for `COc1ccc(/C=C\c2cc(OC)c(OC)c(OC)c2)cc1N/C=C\C(=O)c1cc(OC)c(OC)c(OC)c1` [Compound 10x, (Z)-3-((2-methoxy-5-((Z)-3,4,5-trimethoxystyryl)phenyl)amino)-1-(3,4,5-trimethoxyphenyl)prop-2-en-1-one], the IC50 with A549 cells (Homo sapiens) was 1.68 µM; in the test with HeLa cells (Homo sapiens) it was 0.26 µM; in the test with MCF-7 cells (setting [2]), 0.27 µM; in the test with HCT116 cells (setting [3]), 1.51 µM; in test [1], 110 to 4680 nM.
Take `COc1ccc(C(=O)/C=C\Nc2c(/C=C\c3cc(OC)c(OC)c(OC)c3)ccc(OC)c2O)cc1N` [Compound 16u]: the IC50 in the test on A549 cells (Homo sapiens) is 1.32 µM; with HeLa cells (Homo sapiens), 2.51 µM; in the test on MCF-7 cells (setting [2]), 0.18 µM; in the test on HCT116 cells (setting [3]), 1.74 µM; in test [1], 180 to 7330 nM.
`COc1ccc(/C=C\c2cc(OC)c(OC)c(OC)c2)c(N/C=C\C(=O)c2cc(OC)c(OC)c(OC)c2)c1O` [Compound 16x, (Z)-3-((2-hydroxy-3-methoxy-6-((Z)-3,4,5-trimethoxystyryl)phenyl)amino)-1-(3,4,5-trimethoxyphenyl)prop-2-en-1-one]: the IC50 was 0.25 µM in the test with A549 cells (Homo sapiens); 0.56 µM in the test with HeLa cells (Homo sapiens); 0.23 µM with MCF-7 cells (setting [2]); 3.63 µM in the test with HCT116 cells (setting [3]); 180 to 7330 nM in test [1].
With `COc1ccc(C(=O)/C=C\Nc2cc(/C=C\c3cc(OC)c(OC)c(OC)c3)ccc2OC)cc1N` [Compound 10u, (Z)-1-(3-amino-4-methoxyphenyl)-3-((2-methoxy-5-((Z)-3,4,5-trimethoxystyryl)phenyl)amino)prop-2-en-1-one], the IC50 in the test on A549 cells (Homo sapiens) was 2.4 µM; with HeLa cells (Homo sapiens), 0.52 µM; in the test with MCF-7 cells (Homo sapiens, MCF7, MCF-7 (breast cancer)) it was 0.25 µM; in the test on HCT116 cells (setting [3]), 0.77 µM; in test [1], 110 to 4680 nM.
For `COc1ccc(/C=C\c2cc(OC)c(OC)c(OC)c2)c(N/C=C\C(=O)c2ccc(OC(F)(F)F)cc2)c1O` [Compound 16o, (Z)-3-((2-hydroxy-3-methoxy-6-((Z)-3,4,5-trimethoxystyryl)phenyl)amino)-1-(4-(trifluoromethoxy)phenyl)prop-2-en-1-one], the IC50 was 1.32 µM in the test with A549 cells (Homo sapiens); 7.08 µM in the test with HeLa cells (Homo sapiens); 2.24 µM with MCF-7 cells (setting [2]); 1.95 µM in the test with HCT116 cells (setting [3]); 180 to 7330 nM in test [1].
In the case of `COc1ccc(/C=C\c2cc(OC)c(OC)c(OC)c2)cc1N/C=C\C(=O)c1cc(OC)c(OC)c(OC)c1Br` [Compound 10y, (Z)-1-(2-bromo-3,4,5-trimethoxyphenyl)-3-((2-methoxy-5-((Z)-3,4,5-trimethoxystyryl)phenyl)amino)prop-2-en-1-one], the IC50 was 3.51 µM with A549 cells (Homo sapiens); 0.25 µM in the test with HeLa cells (Homo sapiens); 2.95 µM with MCF-7 cells (setting [2]); 3.98 µM in the test with HCT116 cells (setting [3]); 110 to 4680 nM in test [1].
For `COc1ccc(C=Cc2cc(OC)c(OC)c(OC)c2)cc1N/C=C\C(=O)c1cn(C)c2ccccc12` [Compound 10w, (Z)-3-(2-methoxy-5-(3,4,5-trimethoxystyryl)phenylamino)-1-(1-methyl-1H-indol-3-yl)prop-2-en-1-one], the IC50 was 0.67 µM in the test with A549 cells (Homo sapiens); 0.46 µM with HeLa cells (Homo sapiens); 1.07 µM in the test on MCF-7 cells (setting [2]); 0.37 µM in the test on HCT116 cells (setting [3]); 110 to 4680 nM in test [1].
As for `COc1ccc(C(=O)/C=C\Nc2cc(/C=C\c3cc(OC)c(OC)c(OC)c3)cc(OC)c2OC)cc1N` [Compound 11u, (Z)-1-(3-amino-4-methoxyphenyl)-3-((2,3-dimethoxy-5-((Z)-3,4,5-trimethoxystyryl)phenyl)amino)prop-2-en-1-one], the IC50 is 0.12 µM in the test with A549 cells (Homo sapiens); 4.27 µM with HeLa cells (Homo sapiens); 5.25 µM with MCF-7 cells (setting [2]); 7.59 µM in the test on HCT116 cells (setting [3]); 120 to 5750 nM in test [1].
As for `COc1cc(/C=C\c2cc(OC)c(OC)c(OC)c2)cc(N/C=C\C(=O)c2cc(OC)c(OC)c(OC)c2Br)c1OC` [Compound 11y, (Z)-1-(2-bromo-3,4,5-trimethoxyphenyl)-3-((2,3-dimethoxy-5-((Z)-3,4,5-trimethoxystyryl)phenyl)amino)prop-2-en-1-one], the IC50 in the test with A549 cells (Homo sapiens) was 0.28 µM; in the test on HeLa cells (Homo sapiens) it was 1.58 µM; with MCF-7 cells (setting [2]) it was 5.37 µM; in the test with HCT116 cells (setting [3]) it was 0.3 µM; in test [1] it was 120 to 5750 nM.
Turning to `COc1ccc(C(=O)/C=C\Nc2cc(/C=C\c3cc(OC)c(OC)c(OC)c3)cc(OC)c2OC)cc1[N+](=O)[O-]` [Compound 11t, (Z)-3-((2,3-dimethoxy-5-((Z)-3,4,5-trimethoxystyryl)phenyl)amino)-1-(4-methoxy-3-nitrophenyl)prop-2-en-1-one], the IC50 in the test with A549 cells (Homo sapiens) was 0.15 µM; in the test on HeLa cells (Homo sapiens) it was 1.2 µM; in the test with MCF-7 cells (setting [2]) it was 1.55 µM; with HCT116 cells (setting [3]), 4.79 µM; in test [1] it was 120 to 5750 nM.
On the same counts, the results for `COc1ccc(C(=O)/C=C\Nc2c(/C=C\c3cc(OC)c(OC)c(OC)c3)ccc(OC)c2O)cc1O` [Compound 16q, (Z)-3-((2-hydroxy-3-methoxy-6-((Z)-3,4,5-trimethoxystyryl)phenyl)amino)-1-(3-hydroxy-4-methoxyphenyl)prop-2-en-1-one] are 1.58 µM, 4.17 µM, 0.2 µM, 6.76 µM and 180 to 7330 nM.
In the case of `COc1cc(C=Cc2cc(OC)c(OC)c(OC)c2)cc(N/C=C\C(=O)c2cn(C)c3ccccc23)c1OC` [Compound 11w, (Z)-3-(2,3-dimethoxy-5-(3,4,5-trimethoxystyryl)phenylamino)-1-(1-methyl-1H-indol-3-yl)prop-2-en-1-one], the IC50 in the test with A549 cells (Homo sapiens) is 0.14 µM; with HeLa cells (Homo sapiens), 5.89 µM; in the test on MCF-7 cells (setting [2]), 3.39 µM; in the test with HCT116 cells (setting [3]) it was 1.95 µM; in test [1] it was 120 to 5750 nM.
Take `COc1ccc(C(=O)/C=C\Nc2cc(/C=C\c3cc(OC)c(OC)c(OC)c3)ccc2OC)cc1O` [Compound 10q, (Z)-1-(3-hydroxy-4-methoxyphenyl)-3-((2-methoxy-5-((Z)-3,4,5-trimethoxystyryl)phenyl)amino)prop-2-en-1-one]: the half-maximal inhibitory concentration (IC50) in the test on A549 cells (Homo sapiens) was 3.89 µM; in the test on HeLa cells (Homo sapiens), 0.23 µM; in the test on MCF-7 cells (setting [2]), 4.68 µM; in the test with HCT116 cells (setting [3]), 0.83 µM; in test [1], 110 to 4680 nM.
In the case of `COc1ccc(/C=C\c2cc(OC)c(OC)c(OC)c2)cc1OP(=O)(O)O` [Ca-4, Combretastatin, reference compound], the IC50 was determined as 0.31 µM in the test with A549 cells, 0.58 µM in the test on HeLa cells, 0.58 µM in the test with MCF-7 cells (MCF-7 (breast cancer)) and 3.98 µM in the test on HCT116 cells (HCT116 (colon carcinoma)).

The values are drawn from patent US9487482B2, “3,4,5-trimethoxystyrylarylaminopropenones as potential anticancer agents” (Council of Scientific and Industrial Research, priority 2014, dated 2016).
